Data set [1] concerns Caco-2 monolayers. The format is in vitro ADME. To be noted: human.
Data set [2] relates to Caco-2 monolayers. The format is in vitro ADME, human. Here is the method: Caco-2 cells were seeded on 24-well Millicell insert filters with a density of about 1×10^5 cells/well. These cells were cultured for 21 days to reach confluence and differentiation. The integrity of Caco-2 cell monolayers was evaluated by monitoring trans-epithelial electrical resistance (TEER) on an epithelial volt ohmmeter (World Precision Instruments, Sarasota, Fla., USA). The impermeability (gate functions) of epithelial cell monolayers was measured by the fluorescein leakage test (FLT) that provided information on the effects of xenobiotics on the impermeability of epithelial cell monolayers. The differentiation was assessed using the alkaline phosphatase (ALP) assay at 562 nm
After the above measured parameters of the Caco-2 model became stable, transport study was performed from the apical (AP) to the basolateral (BL) side and from BL to AP at 37° C. Following 30 min of equilibration after the addition of 400 μl HBSS (pH 7.4) in AP side and 600 μl in BL side in an atmosphere of 5% CO2, the test solutions containing 100 μM scutellarin or each of 100 μg/ml of five surfactants Cremophor® EL, Cremophor® RH, Labrasol®, Pluronic® F68, and Pluronic® F127; each of 100 μg/ml of three oils Labrafac Lipophile® WL1349, Maisine® 35-1, and Capmul® MCM; each of 100 μg/ml of three co-surfactants Transcutol®, PEG 400, and PEG 2000; and each of 100 μg/ml of four solid carriers β-cyclodextrin, lactose, HPMC K4M®, HPMC K100®. The solutions were all dissolved in DMSO and HBSS and then added to the donor side. The sample of 100 μM scutellarin was used as the scutellarin standard group in comparing the excipients efflux effect. Permeability of scutellarin was measured at 37° C. from the AP to BL direction and BL to AP direction after incubating in 5% CO2 for respectively 30 min, 60 min, and 90 min. […] After 90 min of incubation, solutions from both AP and BL sides were collected. Then the separately collected samples from each well of AP and BL sides were diluted with equal amounts of methanol before they were injected into the LC-MS for quantification of scutellarin. At 30, 60, 90 min of incubation, TEER values were respectively detected before the samples were drawn from the tested wells.
In the Caco-2 permeation analysis, if the calculated efflux ratio of one excipient group was lower than scutellarin standard group, this excipient might possibly be indicated to have the inhibition effect on MRP2.

A further data set has as its target T1, human MRP2 (Homo sapiens, UniProt Q92887).
T1 construct: purchased BD Biosciences; host or cells: insect Sf9 cells
Put plainly: MRP2 membrane vesicles transport assay with scutellarin as probe (Example 13). The format is biochemical. Here is the method: With some changes in BD protocol of MRP2 vesicles assay, a rapid filtration technique of multiscreen HTS vacuum manifold (Millipore) was used in the analysis. […] The mixture was incubated in the buffer (250 mM sucrose, 10 mM MgCl2, 10 mM Tris/HCl, pH 7.4) at 37° C. for […], followed by addition of 15 μl of 25 mM MgATP or blank buffer to each well started the test. The mixture was incubated for 4 min and stopped by transferring the membrane vesicles to a filter plate.

The mark [3] stands for this setting: human, Caco-2, 90 min, 100 μg/ml, pH 7.4.

Like-named read-outs stand apart in the source and are kept apart here.

T1 sequence (Q92887 whole entry): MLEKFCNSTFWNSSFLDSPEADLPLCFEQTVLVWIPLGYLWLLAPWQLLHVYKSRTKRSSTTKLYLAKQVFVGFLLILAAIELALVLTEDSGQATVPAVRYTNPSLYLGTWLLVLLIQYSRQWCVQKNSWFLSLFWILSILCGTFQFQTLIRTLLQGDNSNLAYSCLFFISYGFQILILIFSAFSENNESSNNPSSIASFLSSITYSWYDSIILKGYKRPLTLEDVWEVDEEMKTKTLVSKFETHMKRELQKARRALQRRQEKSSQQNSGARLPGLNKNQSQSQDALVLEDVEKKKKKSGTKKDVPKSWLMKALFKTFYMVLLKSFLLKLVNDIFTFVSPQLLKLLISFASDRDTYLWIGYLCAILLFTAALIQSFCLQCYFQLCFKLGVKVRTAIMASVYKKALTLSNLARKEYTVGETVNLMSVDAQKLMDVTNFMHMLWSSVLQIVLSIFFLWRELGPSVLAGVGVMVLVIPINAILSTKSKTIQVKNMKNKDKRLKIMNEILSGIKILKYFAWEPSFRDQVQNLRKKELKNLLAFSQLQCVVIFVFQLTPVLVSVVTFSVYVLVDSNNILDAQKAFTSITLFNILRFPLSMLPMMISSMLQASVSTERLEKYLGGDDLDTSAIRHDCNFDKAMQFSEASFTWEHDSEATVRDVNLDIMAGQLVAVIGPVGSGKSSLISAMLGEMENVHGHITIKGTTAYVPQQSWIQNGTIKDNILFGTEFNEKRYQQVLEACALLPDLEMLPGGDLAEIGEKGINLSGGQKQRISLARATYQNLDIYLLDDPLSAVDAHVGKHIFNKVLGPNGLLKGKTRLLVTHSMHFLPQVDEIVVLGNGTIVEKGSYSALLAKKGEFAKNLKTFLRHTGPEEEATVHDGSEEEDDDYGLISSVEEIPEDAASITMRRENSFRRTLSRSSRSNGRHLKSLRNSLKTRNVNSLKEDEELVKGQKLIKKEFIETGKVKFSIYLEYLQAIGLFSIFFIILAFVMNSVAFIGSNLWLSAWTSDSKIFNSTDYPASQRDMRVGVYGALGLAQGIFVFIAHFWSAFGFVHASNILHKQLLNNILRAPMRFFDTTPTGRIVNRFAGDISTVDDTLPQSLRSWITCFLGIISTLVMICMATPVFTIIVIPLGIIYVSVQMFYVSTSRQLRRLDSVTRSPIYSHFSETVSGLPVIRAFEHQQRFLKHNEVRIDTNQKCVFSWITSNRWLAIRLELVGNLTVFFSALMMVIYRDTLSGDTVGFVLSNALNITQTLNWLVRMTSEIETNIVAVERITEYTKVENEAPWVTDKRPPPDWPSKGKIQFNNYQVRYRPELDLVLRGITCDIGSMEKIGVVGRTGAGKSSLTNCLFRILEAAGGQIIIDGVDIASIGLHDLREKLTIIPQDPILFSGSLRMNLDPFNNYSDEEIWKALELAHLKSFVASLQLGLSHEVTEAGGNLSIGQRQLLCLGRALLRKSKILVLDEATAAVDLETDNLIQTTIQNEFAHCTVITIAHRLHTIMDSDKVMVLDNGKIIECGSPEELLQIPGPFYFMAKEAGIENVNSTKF

With `O=C(O)[C@H]1O[C@@H](Oc2cc3oc(-c4ccc(O)cc4)cc(=O)c3c(O)c2O)[C@H](O)[C@@H](O)[C@@H]1O` [Scutellarin, 4,5,6-trihydroxyflavone-7-glucuronide], in the data set with Caco-2 monolayers [1], the “identification as MRP2 substrate with MRP2 inhibitor MK571” value is given as “identified as the substrate for MRP2”.

Consider `CCOCCOCCO` [Transcutol ®, diethylene glycol monoethylether], for which, in the data set with Caco-2 monolayers [2] (setting [3]), the PappAB is 2.69 ± 0.35 10^−6 cm · s^−1 and the PappBA was 5.99 ± 0.52 10^−6 cm · s^−1. Also, the “sequence of inhibition effects on MRP2” value at human MRP2 (within excipient group, p<0.05) is recorded as “PEG 2000>PEG 400>Transcutol®”.

`OC[C@H]1O[C@@H](O[C@H]2[C@H](O)[C@@H](O)C(O)O[C@@H]2CO)[C@H](O)[C@@H](O)[C@H]1O` (stereo partly shown) [lactose]: in the data set with Caco-2 monolayers [2] (setting [3]), the PappAB was 1.44 ± 0.24 10^−6 cm · s^−1 and the PappBA was 7.90 ± 0.43 10^−6 cm · s^−1.

In the case of `OC[C@H]1O[C@@H]2O[C@H]3[C@H](O)[C@@H](O)[C@@H](O[C@H]4[C@H](O)[C@@H](O)[C@@H](O[C@H]5[C@H](O)[C@@H](O)[C@@H](O[C@H]6[C@H](O)[C@@H](O)[C@@H](O[C@H]7[C@H](O)[C@@H](O)[C@@H](O[C@H]8[C@H](O)[C@@H](O)[C@@H](O[C@H]1[C@H](O)[C@H]2O)O[C@@H]8CO)O[C@@H]7CO)O[C@@H]6CO)O[C@@H]5CO)O[C@@H]4CO)O[C@@H]3CO` [β-cyclodextrin], in the data set on Caco-2 monolayers [2] (Caco-2), the PappAB was 4.04 ± 0.33 10^−6 cm · s^−1 and the PappBA is listed as 9.33 ± 0.36 10^−6 cm · s^−1. The “scutellarin concentrations measured compared with scutellarin standard group (FIG. 2)” value at human MRP2 (higher than standard means MRP2 inhibition) was “lower quantities of scutellarin than that of the standard group”.

Turning to Pluronic ® F68, in the data set with Caco-2 monolayers [2] (Caco-2), the Efflux reduction sequence entry was “Cremophor® RH>Pluronic® F68>Labrasol®>Pluronic® F127”, the PappAB was 2.03 ± 0.35 10^−6 cm · s^−1 and the PappBA is on record as 4.38 ± 0.13 10^−6 cm · s^−1.

As for Pluronic ® F127, in the data set with Caco-2 monolayers [2] (Caco-2), the Efflux reduction sequence result is “Cremophor® RH>Pluronic® F68>Labrasol®>Pluronic® F127”, the PappAB is on record as 1.84 ± 0.09 10^−6 cm · s^−1 and the PappBA is listed as 5.31 ± 0.49 10^−6 cm · s^−1.

Regarding polyethylene glycol [PEG 400], in the data set with Caco-2 monolayers [2] (Caco-2), the PappAB is given as 1.46 ± 0.08 10^−6 cm · s^−1 and the PappBA is reported as 1.96 ± 0.05 10^−6 cm · s^−1.

As to polyethylene glycol [PEG 2000], in the data set on Caco-2 monolayers [2] (Caco-2), the PappAB is 9.91 ± 0.35 10^−6 cm · s^−1 and the PappBA is listed as 12.91 ± 1.60 10^−6 cm · s^−1.

These data come from patent US20140057860A1, “PHARMACEUTICAL COMPOSITION FOR TREATING CARDIOVASCULAR AND CEREBROVASCULAR DISEASES AND METHOD OF MANUFACTURING THE SAME” (Macau University of Science and Technology, priority 2012, published 2014).
